How the values were obtained:
Assay type in all cases: cell-based, human
HS 578T = test: NCI-60 five-dose assay (breast cancer); conditions: 48 h, SRB
RPMI-8226 = test: NCI-60 five-dose assay (leukemia); conditions: 48 h, SRB
A498 = test: NCI-60 five-dose assay (renal cancer); conditions: 48 h, SRB
SF-295 = test: NCI-60 five-dose assay (CNS cancer); conditions: 48 h, SRB
IGROV1 = test: NCI-60 five-dose assay (ovarian cancer); conditions: SRB
SW-620 = test: NCI-60 five-dose assay (colon cancer); conditions: 48 h, SRB
HT29 = test: NCI-60 five-dose assay (colon cancer); conditions: SRB
SK-MEL-2 = test: NCI-60 five-dose assay (melanoma); conditions: 48 h, SRB
NCI-H226 = test: NCI-60 five-dose assay (non-small cell lung cancer); conditions: 48 h, SRB
HOP-92 = test: as above; conditions: 48 h, SRB
DU-145 = test: NCI-60 one-dose screen (prostate cancer); conditions: 10 µM single dose, 48 h
Protocol: (§1) The obtained quinolinequinones were submitted to NCI, Bethesda, USA, and, as per standard protocol of NCI, all compounds were evaluated for their antiproliferative activity at single-dose assay (10 µM concentration in DMSO) on a panel of 60 cancer cell lines derived from leukemia, non-small-cell lung, colon, CNS, melanoma, ovarian, renal, prostate, and breast, as per protocol. Tested compounds were added to the microtiter culture plates followed by incubation for 48 h at 37 °C. Sulforhodamine B (SRB), a protein-binding dye, is used for endpoint determination. The percent of the growth of the treated cells was determined in comparison to the untreated control cells and the results of each tested compound were reported. Data from one-dose experiments pertain to the percentage growth at 10 μM [16, 17, 18].

PC-3 = test: NCI-60 one-dose screen (prostate cancer); conditions: 10 µM single dose
Protocol: as §1

LOX IMVI = test: NCI-60 five-dose assay (melanoma); conditions: 48 h, SRB
K-562 = test: NCI-60 five-dose assay (leukemia); conditions: Homo sapiens, K562, 48 h, SRB
MDA-MB-231/ATCC = test: NCI-60 five-dose assay (breast cancer); conditions: 48 h, SRB
SF-268 = test: NCI-60 five-dose assay (CNS cancer); conditions: 48 h, SRB
NCI-H460 = test: NCI-60 five-dose assay (non-small cell lung cancer); conditions: 48 h, SRB
T-47D = test: NCI-60 five-dose assay (breast cancer); conditions: 48 h, SRB
HCT-15 = test: NCI-60 five-dose assay (colon cancer); conditions: 48 h, SRB
MALME-3M = test: NCI-60 five-dose assay (melanoma); conditions: 48 h, SRB
SNB-19 = test: NCI-60 five-dose assay (CNS cancer); conditions: 48 h, SRB
KM12 = test: NCI-60 five-dose assay (colon cancer); conditions: 48 h, SRB
HOP-62 = test: NCI-60 five-dose assay (non-small cell lung cancer); conditions: 48 h, SRB
MOLT-4 = test: NCI-60 five-dose assay (leukemia); conditions: 48 h, SRB
CAKI-1 = test: NCI-60 five-dose assay (renal cancer); conditions: 48 h, SRB
HCT-116 = test: NCI-60 five-dose assay (colon cancer); conditions: 48 h, SRB
A549/ATCC = test: NCI-60 five-dose assay (non-small cell lung cancer); conditions: 48 h, SRB
ACHN = test: NCI-60 five-dose assay (renal cancer); conditions: 48 h, SRB
CCRF-CEM = test: NCI-60 five-dose assay (leukemia); conditions: 48 h, SRB
SK-MEL-5 = test: NCI-60 five-dose assay (melanoma); conditions: 48 h, SRB
SK-OV-3 = test: NCI-60 five-dose assay (ovarian cancer); conditions: 48 h, SRB
SR = test: NCI-60 five-dose assay (leukemia); conditions: 48 h, SRB
[1] = Homo sapiens, read-out: LC50 (the source's name)

In the case of `CCOc1ccccc1NC1=C(Cl)C(=O)c2nc(C)ccc2C1=O` [AQQ2], the TGI (HS 578T) is reported as 5.25 µM, the GI50 (HS 578T; Homo sapiens) is reported as 2.11 µM and the CC50 (HS 578T; [1]) is reported as > 100 µM. The TGI (RPMI-8226) was 4.71 µM, the GI50 (RPMI-8226; Homo sapiens) was 1.2 µM and the CC50 (RPMI-8226; [1]) was > 100 µM. For the same molecule, the TGI (A498) was 10.8 µM, the GI50 (A498; Homo sapiens) was 2.65 µM and the LC50 (A498; Homo sapiens) was 34.8 µM. It also gave a TGI (SF-295) of 4.20 µM, a GI50 (SF-295; Homo sapiens) of 2.03 µM and an LC50 (50% lethal concentration) (SF-295; Homo sapiens) of 8.7 µM. The TGI (IGROV1; 48 h) was 2.82 µM, the GI50 (IGROV1; Homo sapiens, IGROV-1, 48 h) was 1.37 µM and the LC50 (IGROV1; Homo sapiens, IGROV-1, 48 h) was 5.84 µM. It also gave a TGI (SW-620) of 3.21 µM, a GI50 (SW-620; Homo sapiens) of 1.6 µM and an LC50 (SW-620; Homo sapiens) of 6.41 µM. For the same molecule, the TGI (HT29; 48 h) was 15.2 µM, the GI50 (HT29; Homo sapiens, HT-29, 48 h) was 3.4 µM and the LC50 (concentration killing 50% of cells) (HT29; Homo sapiens, HT-29, 48 h) was 99.5 µM. It also gave a TGI (SK-MEL-2) of 2.86 µM, a GI50 (SK-MEL-2; Homo sapiens) of 1.44 µM and a CC50 (SK-MEL-2; [1]) of 5.69 µM. For the same molecule, the TGI (NCI-H226) was 4.24 µM, the GI50 (NCI-H226; Homo sapiens) was 1.78 µM and the LC50 (NCI-H226; Homo sapiens) was 16.2 µM. The TGI (HOP-92) was 3.33 µM, the GI50 (HOP-92; Homo sapiens) was 1.8 µM and the LC50 (50% lethal concentration) (HOP-92; Homo sapiens) was 6.13 µM. For the same molecule, the “GP (growth percentage)” value (DU-145) was −85.02%, the “GP (growth percentage)” value (PC-3; 48 h) was 4.34% and the inhibition at 10 µM (PC-3; Homo sapiens) was 95.7%. The TGI (LOX IMVI) was 2.22 µM, the GI50 (LOX IMVI; Homo sapiens) was 0.839 µM and the LC50 (concentration killing 50% of cells) (LOX IMVI; Homo sapiens) was 5.33 µM. The GI50 (K-562) was 0.341 µM, the LC50 (K-562) was > 100 µM and the TGI (MDA-MB-231/ATCC) was 2.38 µM. For the same molecule, the GI50 (MDA-MB-231/ATCC; Homo sapiens) was 1.07 µM, the LC50 (concentration killing 50% of cells) (MDA-MB-231/ATCC; Homo sapiens) was 5.31 µM and the TGI (SF-268) was 2.94 µM. The GI50 (SF-268; Homo sapiens) was 1.47 µM, the LC50 (concentration killing 50% of cells) (SF-268; Homo sapiens) was 5.87 µM and the TGI (NCI-H460) was 11.4 µM. The GI50 (NCI-H460; Homo sapiens) was 3.02 µM, the CC50 (NCI-H460; [1]) was 45.4 µM and the TGI (T-47D) was 3.17 µM. For the same molecule, the GI50 (T-47D; Homo sapiens, T47D) was 0.467 µM, the CC50 (T-47D; Homo sapiens, T47D, read-out: LC50 (the source's name)) was > 100 µM and the TGI (HCT-15) was 2.55 µM. It also gave a GI50 (HCT-15; Homo sapiens) of 1.13 µM, a CC50 (HCT-15; [1]) of 5.76 µM and a TGI (MALME-3M) of 2.77 µM. The GI50 (MALME-3M; Homo sapiens) was 1.36 µM, the LC50 (MALME-3M; Homo sapiens) was 5.64 µM and the TGI (SNB-19) was 3.97 µM. It also gave a GI50 (SNB-19; Homo sapiens) of 1.8 µM, a CC50 (SNB-19; [1]) of 8.73 µM and a TGI (KM12) of 2.89 µM. For the same molecule, the GI50 (KM12; Homo sapiens) was 1.41 µM, the CC50 (KM12; [1]) was 5.92 µM and the TGI (HOP-62) was 6.74 µM. It also gave a GI50 (HOP-62; Homo sapiens) of 2.27 µM, an LC50 (concentration killing 50% of cells) (HOP-62; Homo sapiens) of 28.8 µM and a TGI (MOLT-4) of 8.09 µM. For the same molecule, the GI50 (MOLT-4; Homo sapiens) was 2.03 µM, the LC50 (MOLT-4; Homo sapiens) was > 100 µM and the TGI (CAKI-1) was 2.84 µM. For the same molecule, the GI50 (CAKI-1; Homo sapiens) was 1.45 µM, the LC50 (lethal concentration, 50% net cell kill) (CAKI-1; Homo sapiens) was 5.57 µM and the TGI (HCT-116) was 2.31 µM. It also gave a GI50 (HCT-116; Homo sapiens) of 1.05 µM, an LC50 (HCT-116; Homo sapiens) of 5.05 µM and a TGI (A549/ATCC) of 4.64 µM. The GI50 (A549/ATCC; Homo sapiens) was 2.06 µM, the CC50 (A549/ATCC; [1]) was 12.9 µM and the TGI (ACHN) was 2.69 µM. The GI50 (ACHN; Homo sapiens) was 1.35 µM, the LC50 (ACHN; Homo sapiens) was 5.35 µM and the TGI (CCRF-CEM) was >100 µM. For the same molecule, the GI50 (CCRF-CEM; Homo sapiens) was 1.41 µM, the LC50 (concentration killing 50% of cells) (CCRF-CEM; Homo sapiens) was > 100 µM and the TGI (SK-MEL-5) was 3.13 µM. It also gave a GI50 (SK-MEL-5; Homo sapiens) of 1.74 µM, a CC50 (SK-MEL-5; [1]) of 5.65 µM and a TGI (SK-OV-3) of 27.1 µM. For the same molecule, the GI50 (SK-OV-3; Homo sapiens) was 13.5 µM, the LC50 (50% net cell kill) (SK-OV-3; Homo sapiens) was 54.2 µM and the TGI (SR) was 4.14 µM. For the same molecule, the GI50 (SR; Homo sapiens) was 0.543 µM and the CC50 (SR; [1]) was > 100 µM.

— article PMC11200585, “Prospects for Prostate Cancer Chemotherapy: Cytotoxic Evaluation and Mechanistic Insights of Quinolinequinones with ADME/PK Profile” (Biomedicines, 2024)
